Data set [1] has as its system Escherichia coli. Put plainly: Antibacterial activity against intact Escherichia coli DH5alpha expressing wild-type tetracycline efflux transporter TetA(B) gene. Type of data set: functional.
For data set [2], the system named is Escherichia coli. Description: Antibacterial activity against intact Escherichia coli DH5alpha expressing tetracycline efflux transporter TetA(B) Asp190Cys mutant gene. Type of data set: functional.
The test system of data set [3] is Escherichia coli. Put plainly: Antibacterial activity against intact Escherichia coli DH5alpha. Type of data set: functional.
Substrate in data set [4]: CN(C)[C@@H]1C(O)=C(C(N)=O)C(=O)[C@@]2(O)C(O)=C3C(=O)c4c(O)cccc4[C@@](C)(O)[C@H]3C[C@@H]12
Put plainly: Activity of tetracycline efflux transporter TetA(B) in Escherichia coli DH5alpha membrane vesicles assessed as [3H]tetracycline uptake per mg of protein. Type of data set: cell membranes.

Substrate in data set [5]: CN(C)[C@@H]1C(O)=C(C(N)=O)C(=O)[C@@]2(O)C(O)=C3C(=O)c4c(O)cccc4[C@@](C)(O)[C@H]3C[C@@H]12
Description: Activity of tetracycline efflux transporter TetA(B) in Escherichia coli DH5alpha membrane vesicles assessed as [3H]tetracycline uptake. Type of data set: cell membranes.

Substrate in data set [6]: CN(C)[C@@H]1C(O)=C(C(N)=O)C(=O)[C@@]2(O)C(O)=C3C(=O)c4c(O)cccc4[C@@](C)(O)[C@H]3C[C@@H]12
Description: Activity of tetracycline efflux transporter TetA(B) Asp190Cys mutant in Escherichia coli DH5alpha membrane vesicles assessed as [3H]tetracycline uptake per mg of protein. Type of data set: cell membranes.

Substrate in data set [7]: CN(C)[C@@H]1C(O)=C(C(N)=O)C(=O)[C@@]2(O)C(O)=C3C(=O)c4c(O)cccc4[C@@](C)(O)[C@H]3C[C@@H]12
Description: Activity of tetracycline efflux transporter TetA(B) Asp190Cys mutant in Escherichia coli DH5alpha membrane vesicles assessed as [3H]tetracycline uptake. Type of data set: cell membranes.

In brackets after ≈: the same amount, converted by molar mass.

Turning to `CN(C)[C@@H]1C(O)=C(C(N)=O)C(=O)[C@@]2(O)C(O)=C3C(=O)c4c(O)cccc4[C@@](C)(O)[C@H]3C[C@@H]12` [TETRACYCLINE], the minimum inhibitory concentration (MIC) against Escherichia coli [1] was found to be 128 µg/mL (≈ 288 µM); with Escherichia coli [2] it was 11 µg/mL (≈ 24.8 µM); against Escherichia coli [3], 0.75 µg/mL (≈ 1.69 µM).

Regarding `C[C@H]1c2cccc(O)c2C(=O)C2=C(O)[C@]3(O)C(=O)C(C(N)=O)=C(O)[C@@H](N(C)C)[C@@H]3[C@@H](O)[C@@H]21.O` [DOXYCYCLINE], the minimum inhibitory concentration (MIC) against Escherichia coli [1] worked out at 32 µg/mL; in the data set on Escherichia coli [2] it was 14 µg/mL; with Escherichia coli [3] it was 1.25 µg/mL.

B1: Tetracycline resistance protein, class B (Escherichia coli), P02980 (protein)
chain: MNSSTKIALVITLLDAMGIGLIMPVLPTLLREFIASEDIANHFGVLLALYALMQVIFAPWLGKMSDRFGRRPVLLLSLIGASLDYLLLAFSSALWMLYLGRLLSGITGATGAVAASVIADTTSASQRVKWFGWLGASFGLGLIAGPIIGGFAGEISPHSPFFIAALLNIVTFLVVMFWFRETKNTRDNTDTEVGVETQSNSVYITLFKTMPILLIIYFSAQLIGQIPATVWVLFTENRFGWNSMMVGFSLAGLGLLHSVFQAFVAGRIATKWGEKTAVLLGFIADSSAFAFLAFISEGWLVFPVLILLAGGGIALPALQGVMSIQTKSHQQGALQGLLVSLTNATGVIGPLLFAVIYNHSLPIWDGWIWIIGLAFYCIIILLSMTFMLTPQAQGSKQETSA
In the case of B1, in data set [4], the Vmax was found to be 1270 pmol/min. The Km in data set [5] was 22 µM.

B2: Tetracycline resistance protein, class B (Escherichia coli), P02980 D190C (protein)
chain: MNSSTKIALVITLLDAMGIGLIMPVLPTLLREFIASEDIANHFGVLLALYALMQVIFAPWLGKMSDRFGRRPVLLLSLIGASLDYLLLAFSSALWMLYLGRLLSGITGATGAVAASVIADTTSASQRVKWFGWLGASFGLGLIAGPIIGGFAGEISPHSPFFIAALLNIVTFLVVMFWFRETKNTRDNTCTEVGVETQSNSVYITLFKTMPILLIIYFSAQLIGQIPATVWVLFTENRFGWNSMMVGFSLAGLGLLHSVFQAFVAGRIATKWGEKTAVLLGFIADSSAFAFLAFISEGWLVFPVLILLAGGGIALPALQGVMSIQTKSHQQGALQGLLVSLTNATGVIGPLLFAVIYNHSLPIWDGWIWIIGLAFYCIIILLSMTFMLTPQAQGSKQETSA
On to B2, for which the Vmax in data set [6] was found to be 1330 pmol/min. Moreover, in data set [7], the Km is 83 µM.

Broadly, the MIC is the lowest concentration found to suppress growth. One may read the Vmax as the rate approached at saturating substrate. As usually defined, the Km is the substrate concentration at which the rate is half of its maximum.

The values are drawn from ChEMBL document CHEMBL1155147, “Interdomain loop mutation Asp190Cys of the tetracycline efflux transporter TetA(B) decreases affinity for substrate” (2007).
